According to PubChem BioAssay (NCI):
Values joined by “and” are separate entries in the source; they are usually repeats but may differ in a detail not shown here. Identical values can stand only once.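 Exposure lasted 48 hours, with cells grown in 96-well plates and compounds tested at five concentrations. Abbreviation: GI50, concentration required for 50% inhibition of growth. TGI: total growth inhibition.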

System: MDA-MB-468 breast
Test: growth of human tumour cells (NCI), 48 h

With `COc1ccc(/C=C/C(=O)/C=C/c2cc3ccccc3[nH]c2=O)cc1` the GI50 was 2320 nM and the TGI was 6.59 µM.
With `Cn1c(C(=O)c2ccncc2)cc2ccccc21` the GI50 was 32300 nM and the TGI was over 100 µM.
`COc1ccc(-c2ccncc2)cc1C(N)=O` gave a GI50 of over 25000 nM and a TGI of over 25 µM.
Compound `O=C(/C=C/C12c3ccccc3C(c3ccccc31)C1C(=O)NC(=O)C12)c1ccc(Cl)cc1Cl` (stereo unspecified) has a GI50 of 1960 nM and a TGI of 4.13 µM.
`CCC(O)c1ccc(Br)cc1NC(=O)c1cccc(Cl)c1` (stereo unspecified) was tested, and the GI50 was 20300 nM and the TGI was 56.5 µM.
In the case of `COc1cc2ncn(-c3cc(OCc4ccccc4C(F)(F)F)c(C(=O)N(C)C)s3)c2cc1OC`, the GI50 is reported as 7660 nM and the TGI is reported as over 14.7 µM.
`Cc1nc(-c2ccccc2)n2nc(NCCCN3CCOCC3)ncc12` showed a GI50 of over 5330 nM and a TGI of over 25 µM.
`COc1ccc(-c2cs/c(=N\N=C\c3ccc(O)cc3O)n2/N=C/c2ccc(O)cc2O)cc1` showed a GI50 of 1960 nM and a TGI of 5.68 µM.
`CC(C)c1cnn2c(NCc3ccccc3)cc(NC[C@H]3CCNC[C@@H]3O)nc12` was tested, and the GI50 was 381 nM and 519 nM and the TGI was 1.79 µM and 2.33 µM.
Compound `Cc1ncc(C(=O)Nc2ccc(CN3CCN(C)CC3)c(C(F)(F)F)c2)cc1C#Cc1cnc2cccnn12` has a GI50 of 1110 nM and a TGI of 3.41 µM.
`FC(F)(c1ccc2ncccc2c1)c1nnc2ccc(-c3ccncc3)nn12` showed a GI50 of 53500 nM and a TGI of over 100 µM.
In the case of `O=c1c2cc(F)ccc2sc2c(N3CCNCC3)nc3ccc(F)cc3c12`, the GI50 is reported as 1580 nM and the TGI is reported as 3.05 µM.
Work on `CC(=O)Oc1ccc(C23c4ccccc4C2(OC(C)=O)c2cc(OC(C)=O)ccc23)cc1` (stereo unspecified) yielded a GI50 of 570 nM and a TGI of 5.02 µM.
`COc1cccc(/C(C#N)=C/c2nc3c(N4CCOCC4)nc(Cl)nc3n2C)c1` gave a GI50 of 497 nM and a TGI of 1.87 µM.
With `COc1cc2nc(SCc3cc(OC)c(OC)c(OC)c3)n(Cc3ccccc3)c(=O)c2cc1OC` the GI50 was 307 nM and the TGI was 1.91 µM.
For `Cc1nc(N)nc2c1CCC(O)S2` (stereo unspecified), the GI50 was 2740 nM and the TGI was 13 µM.
In the case of `CCNc1cc(-c2cccc(OC(F)(F)F)c2)nc2ccc(N3CCCC3)cc12`, the GI50 is reported as 1400 nM and the TGI is reported as 3.35 µM.
With `CN(Cc1cnc2nc(N)nc(N)c2n1)c1ccc(C(=O)N[C@@H](CCC(=O)O)C(=O)O)cc1` the TGI was over 250 µM.
`COc1cc(F)c(F)c(Nc2ccc(I)cc2F)c1NS(=O)(=O)C1(C[C@H](O)CO)CC1` gave a GI50 of over 5950 nM and a TGI of over 10 µM.
Work on `O=S(=O)(NCCNc1nccc(-c2c(-c3ccc(F)c(O)c3)nc3sccn23)n1)c1ccc(F)cc1` yielded a GI50 of 2970 nM and a TGI of 25.5 µM.
`CS(=O)(=O)CCNCc1cc(-c2cc3c(Nc4ccc(OCc5cccc(F)c5)c(Cl)c4)ncnc3s2)cs1` was tested, and the GI50 was 569 nM and the TGI was 4.13 µM.
